Source: PubChem BioAssay AID2060604 (Molecular Pharmacology Branch, DTP, NCI, 2025)
pIC50: −log10 of the molar value.

Test system: 379773-124-R-J2-PDC complex spheroids, viability % test/control
Assay: Anticancer human tumor 379773-124-R-J2-PDC patient-derived endometrial carcinoma cell line growth inhibition [CLK]
Conditions: for pIC50: curve of first compound; for viability, T/C: stronger effect = lower value
Summary of the method: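 Multi-cell-type spheroids combined patient-derived tumor cells with HUVEC endothelial cells and human mesenchymal stem cells. Paired agents were dosed in half-log steps down from about clinical Cmax, or from 10 microM where Cmax was unknown.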
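Note: compound exposure lasted seven days before the viability readout.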
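Throughout, for viability, T/C: 100% = DMSO vehicle control wells.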

**Q.** What does the source list for `CC1COCCN1c1cc(C2(S(C)(=N)=O)CC2)nc(-c2ccnc3[nH]ccc23)n1` (centres undefined) + CNC(=O)c1ccc(Nc2nc(OC3CCCC3)c3c(-c4ccc5nc(C)oc5c4)c[nH]c3n2)c(OC)c1?
**A.** pIC50 (second compound 0.0316 µM): 5.73; pIC50 (second compound 0.1 µM): > 7.50; pIC50 (second compound 0.316 µM): > 7.50; pIC50 (second compound 1 µM): > 7.50; pIC50 (second compound 3.16 µM): > 7.50; pIC50 (second compound 10 µM): > 7.50; viability, T/C (second compound 0.0316 µM, first compound 0.0316 µM): 78%; viability, T/C (second compound 0.0316 µM, first compound 0.1 µM): 83.8%; viability, T/C (second compound 0.0316 µM, first compound 0.316 µM): 86.2%; viability, T/C (second compound 0.0316 µM, first compound 1 µM): 67.2%; viability, T/C (second compound 0.0316 µM, first compound 3.16 µM): 34.5%; viability, T/C (second compound 0.0316 µM, first compound 10 µM): 9.32%; viability, T/C (second compound 0.1 µM, first compound 0.0316 µM): 42.7%; viability, T/C (second compound 0.1 µM, first compound 0.1 µM): 44.6%; viability, T/C (second compound 0.1 µM, first compound 0.316 µM): 36.1%; viability, T/C (second compound 0.1 µM, first compound 1 µM): 42.7%; viability, T/C (second compound 0.1 µM, first compound 3.16 µM): 26%; viability, T/C (second compound 0.1 µM, first compound 10 µM): 9.26%; viability, T/C (second compound 0.316 µM, first compound 0.0316 µM): 42.6%; viability, T/C (second compound 0.316 µM, first compound 0.1 µM): 38.5%; viability, T/C (second compound 0.316 µM, first compound 0.316 µM): 39.1%; viability, T/C (second compound 0.316 µM, first compound 1 µM): 41.5%; viability, T/C (second compound 0.316 µM, first compound 3.16 µM): 30.1%; viability, T/C (second compound 0.316 µM, first compound 10 µM): 12.7%; viability, T/C (second compound 1 µM, first compound 0.0316 µM): 40.6%; viability, T/C (second compound 1 µM, first compound 0.1 µM): 36.1%; viability, T/C (second compound 1 µM, first compound 0.316 µM): 37%; viability, T/C (second compound 1 µM, first compound 1 µM): 36.5%; viability, T/C (second compound 1 µM, first compound 3.16 µM): 20.5%; viability, T/C (second compound 1 µM, first compound 10 µM): 5.75%; viability, T/C (second compound 3.16 µM, first compound 0.0316 µM): 27.9%; viability, T/C (second compound 3.16 µM, first compound 0.1 µM): 34%; viability, T/C (second compound 3.16 µM, first compound 0.316 µM): 31.9%; viability, T/C (second compound 3.16 µM, first compound 1 µM): 31.4%; viability, T/C (second compound 3.16 µM, first compound 3.16 µM): 21.4%; viability, T/C (second compound 3.16 µM, first compound 10 µM): 5.79%; viability, T/C (second compound 10 µM, first compound 0.0316 µM): 29.7%; viability, T/C (second compound 10 µM, first compound 0.1 µM): 40.1%; viability, T/C (second compound 10 µM, first compound 0.316 µM): 28.9%; viability, T/C (second compound 10 µM, first compound 1 µM): 24.9%; viability, T/C (second compound 10 µM, first compound 3.16 µM): 24.2%; viability, T/C (second compound 10 µM, first compound 10 µM): 4.37%

**Q.** Which results are given for `NC(=O)C(=Cn1cnc(-c2cc(C(F)(F)F)cc(C(F)(F)F)c2)n1)c1cncnc1` + CNC(=O)c1ccc(Nc2nc(OC3CCCC3)c3c(-c4ccc5nc(C)oc5c4)c[nH]c3n2)c(OC)c1?
**A.** pIC50 (second compound 0.0316 µM): 7.41; pIC50 (second compound 0.1 µM): > 8.02; pIC50 (second compound 0.316 µM): > 8.02; pIC50 (second compound 1 µM): > 8.02; pIC50 (second compound 3.16 µM): > 8.02; pIC50 (second compound 10 µM): > 8.02; viability, T/C (second compound 0.0316 µM, first compound 0.00949 µM): 72.8%; viability, T/C (second compound 0.0316 µM, first compound 0.03 µM): 57.6%; viability, T/C (second compound 0.0316 µM, first compound 0.0949 µM): 25.4%; viability, T/C (second compound 0.0316 µM, first compound 0.3 µM): 12.7%; viability, T/C (second compound 0.0316 µM, first compound 0.949 µM): 7.15%; viability, T/C (second compound 0.0316 µM, first compound 3 µM): 2.1%; viability, T/C (second compound 0.1 µM, first compound 0.00949 µM): 32.3%; viability, T/C (second compound 0.1 µM, first compound 0.03 µM): 29.7%; viability, T/C (second compound 0.1 µM, first compound 0.0949 µM): 21.4%; viability, T/C (second compound 0.1 µM, first compound 0.3 µM): 12.4%; viability, T/C (second compound 0.1 µM, first compound 0.949 µM): 6.65%; viability, T/C (second compound 0.1 µM, first compound 3 µM): 2.59%; viability, T/C (second compound 0.316 µM, first compound 0.00949 µM): 36.7%; viability, T/C (second compound 0.316 µM, first compound 0.03 µM): 32.8%; viability, T/C (second compound 0.316 µM, first compound 0.0949 µM): 23.8%; viability, T/C (second compound 0.316 µM, first compound 0.3 µM): 12%; viability, T/C (second compound 0.316 µM, first compound 0.949 µM): 5.08%; viability, T/C (second compound 0.316 µM, first compound 3 µM): 1.7%; viability, T/C (second compound 1 µM, first compound 0.00949 µM): 31.9%; viability, T/C (second compound 1 µM, first compound 0.03 µM): 32.6%; viability, T/C (second compound 1 µM, first compound 0.0949 µM): 20.9%; viability, T/C (second compound 1 µM, first compound 0.3 µM): 10.4%; viability, T/C (second compound 1 µM, first compound 0.949 µM): 3.69%; viability, T/C (second compound 1 µM, first compound 3 µM): 0.49%; viability, T/C (second compound 3.16 µM, first compound 0.00949 µM): 30.1%; viability, T/C (second compound 3.16 µM, first compound 0.03 µM): 34.9%; viability, T/C (second compound 3.16 µM, first compound 0.0949 µM): 18.2%; viability, T/C (second compound 3.16 µM, first compound 0.3 µM): 7.24%; viability, T/C (second compound 3.16 µM, first compound 0.949 µM): 2.43%; viability, T/C (second compound 3.16 µM, first compound 3 µM): 0.24%; viability, T/C (second compound 10 µM, first compound 0.00949 µM): 37.7%; viability, T/C (second compound 10 µM, first compound 0.03 µM): 26.8%; viability, T/C (second compound 10 µM, first compound 0.0949 µM): 14.3%; viability, T/C (second compound 10 µM, first compound 0.3 µM): 7.07%; viability, T/C (second compound 10 µM, first compound 0.949 µM): 2.12%; viability, T/C (second compound 10 µM, first compound 3 µM): 0.82%
